Data as given in ChEMBL document CHEMBL5143711, “Glenthmycins A-M: Macrocyclic Spirotetronate Polyketide Antibacterials from the Australian Pasture Plant-Derived Streptomyces sp. CMB-PB041” (J Nat Prod, 2022).

How the values were obtained:
Staphylococcus aureus [1] = assay: Antibacterial activity against Staphylococcus aureus ATCC 25923 incubated for 16 to 24 hrs in presence of ampicillin by broth microdilution based spectrophotometric analysis; format: functional, organism-based
Enterococcus faecalis [2] = assay: Antibacterial activity against Enterococcus faecalis incubated for 16 to 24 hrs in presence of ampicillin by broth microdilution based spectrophotometric analysis; format: functional, organism-based
Enterococcus faecium = assay: Antibacterial activity against vancomycin-resistant Enterococcus faecium incubated for 16 to 24 hrs by broth microdilution based spectrophotometric analysis; format: functional, organism-based
Staphylococcus aureus [3] = assay: Antibacterial activity against Staphylococcus aureus ATCC 25923 incubated for 16 to 24 hrs by broth microdilution based spectrophotometric analysis; format: functional, organism-based
[4] = tested on: Mycobacterium tuberculosis; assay: Antibacterial activity against Mycobacterium tuberculosis H37Ra ATCC 25177 incubated for 16 to 24 hrs by broth microdilution based spectrophotometric analysis; format: functional, organism-based
Escherichia coli = assay: Antibacterial activity against Escherichia coli ATCC 11775 incubated for 16 to 24 hrs by broth microdilution based spectrophotometric analysis; format: functional, organism-based
[5] = Cytotoxicity against human NCI-H460 cells and measured after 48 hrs by MTT assay; format: toxicity, cell-based
Candida albicans = assay: Antifungal activity against Candida albicans ATCC 10231 incubated for 16 to 24 hrs by broth microdilution based spectrophotometric analysis; format: functional, organism-based
Staphylococcus aureus [6] = assay: Antibacterial activity against methicillin-resistant Staphylococcus aureus ATCC 33591 incubated for 16 to 24 hrs by broth microdilution based spectrophotometric analysis; format: functional, organism-based
[7] = Cytotoxicity against human SW-620 cells and measured after 48 hrs by MTT assay; format: toxicity, cell-based
Staphylococcus aureus [8] = assay: Antibacterial activity against methicillin-resistant Staphylococcus aureus ATCC 43300 incubated for 16 to 24 hrs by broth microdilution based spectrophotometric analysis; format: functional, organism-based
Enterococcus faecalis [9] = assay: Antibacterial activity against Enterococcus faecalis incubated for 16 to 24 hrs by broth microdilution based spectrophotometric analysis; format: functional, organism-based
Enterococcus faecalis [10] = assay: Antibacterial activity against Enterococcus faecalis incubated for 16 to 24 hrs in presence of rifampicin by broth microdilution based spectrophotometric analysis; format: functional, organism-based
Staphylococcus aureus [11] = assay: Antibacterial activity against Staphylococcus aureus ATCC 25923 incubated for 16 to 24 hrs in presence of rifampin by broth microdilution based spectrophotometric analysis; format: functional, organism-based

Structure (SMILES)	IC50 (Staphylococcus aureus [1])	IC50 (Enterococcus faecalis [2])	IC50 (Enterococcus faecium)	IC50 (Staphylococcus aureus [3])	IC50 [4]	IC50 (Escherichia coli)	IC50 at 48 h [5]	IC50 (Candida albicans)	IC50 (Staphylococcus aureus [6])	IC50 at 48 h [7]	IC50 (Staphylococcus aureus [8])	IC50 (Enterococcus faecalis [9])	IC50 (Enterococcus faecalis [10])	IC50 (Staphylococcus aureus [11])
CO[C@H]1/C=C/O[C@@]2(C)Oc3c(C)c(O)c4c(O)c(c(/C=N/N5CCN(C)CC5)c(O)c4c3C2=O)NC(=O)/C(C)=C\C=C\[C@H](C)[C@H](O)[C@@H](C)[C@@H](O)[C@@H](C)[C@H](OC(C)=O)[C@@H]1C [RIFAMPIN]	< 10 µM	< 10 µM												
COc1cc(C)c(C(=O)O[C@H]2[C@H](O[C@H]3CC[C@H](C)[C@@H]4[C@@H]3C=C(C)[C@H]3/C(C)=C/CC/C(C)=C/[C@@H]5C=C(C(=O)O)[C@H](C)C[C@]56OC(=O)C(=C6O)C(=O)[C@@]43C)O[C@H](C)[C@@H](O)[C@H]2O)c(O)c1			2.9 µM	18.4 µM	> 30 µM	> 30 µM	> 30 µM	> 30 µM	8.6 µM	> 30 µM	16.3 µM	2.7 µM		
CC1(C)S[C@@H]2[C@H](NC(=O)[C@H](N)c3ccccc3)C(=O)N2[C@H]1C(=O)O [AMPICILLIN]													< 10 µM	< 10 µM
COc1cc(C)c(C(=O)O[C@H]2[C@@H](O)[C@@H](O)[C@H](O[C@H]3CC[C@H](C)[C@@H]4[C@@H]3C=C(C)[C@H]3/C(C)=C/CC/C(C)=C/[C@]5(C)C=C(C(=O)O)[C@H](C)C[C@]56OC(=O)C(=C6O)C(=O)[C@@]43C)O[C@@H]2C)c(OC)c1			3.2 µM	4.9 µM	> 30 µM	> 30 µM	> 30 µM	> 30 µM	2.3 µM	> 30 µM	3.9 µM	6.2 µM		
COc1cc(C)c(C(=O)N[C@@H]2[C@@H](C)O[C@@H](O[C@H]3CC[C@H](C)[C@@H]4[C@@H]3C=C(C)[C@H]3/C(C)=C/CC/C(C)=C/[C@]5(C)C=C(C(=O)O)[C@H](C)C[C@]56OC(=O)C(=C6O)C(=O)[C@@]43C)[C@H](O)[C@]2(C)O)c(O)c1			9.5 µM	11.9 µM	> 30 µM	> 30 µM	> 30 µM	> 30 µM	2.2 µM	> 30 µM	9.1 µM	7.3 µM		
COc1cc(C)c(C(=O)O[C@H]2[C@@H](O)[C@@H](O)[C@H](O[C@H]3CC[C@H](C)[C@@H]4[C@@H]3C=C(C)[C@H]3/C(C)=C/CC/C(C)=C/[C@@H]5C=C(C(=O)O)[C@H](C)C[C@]56OC(=O)C(=C6O)C(=O)[C@@]43C)O[C@@H]2C)c(O)c1			5.4 µM	15.3 µM	> 30 µM	> 30 µM	> 30 µM	> 30 µM	8.3 µM	> 30 µM	6.3 µM	3.1 µM		
